From PMC2213500 (The Journal of Experimental Medicine, 2000) come the findings set out here.

For experiment [1], the target named is wtDR1 (Homo sapiens, UniProt P01903+P01911, A100R/D57E/F55L/F60I/F76Y/I96L/L162R/M171V/P40L/Q125E/R42F/V115G/Y59C). Format: binding.
Experiment [2] has as its target soluble wild-type HLA-DR1 (empty, no added peptide) (human). The experiment is described as follows: intrinsic tryptophan fluorescence.

soluble HLA-DM, sequence (P28067 27-233): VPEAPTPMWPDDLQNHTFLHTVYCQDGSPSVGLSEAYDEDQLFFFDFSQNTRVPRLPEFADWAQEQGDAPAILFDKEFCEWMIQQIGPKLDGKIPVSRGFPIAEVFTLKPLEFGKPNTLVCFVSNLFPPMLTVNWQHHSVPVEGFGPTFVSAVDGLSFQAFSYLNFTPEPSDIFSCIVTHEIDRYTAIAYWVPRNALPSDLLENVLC
soluble HLA-DM, sequence (P28068 19-218): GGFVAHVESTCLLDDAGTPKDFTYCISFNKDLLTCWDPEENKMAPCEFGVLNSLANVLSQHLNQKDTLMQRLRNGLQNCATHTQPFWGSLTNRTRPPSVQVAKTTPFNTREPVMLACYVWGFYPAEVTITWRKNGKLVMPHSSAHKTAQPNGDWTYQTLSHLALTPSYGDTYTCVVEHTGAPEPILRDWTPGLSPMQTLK

Regarding CLSPFPFDL, the “DR1 binding of control peptide” value in experiment [1] is reported as “non–DR1-binding”. For the substance “soluble HLA-DM (from UniProt P28067;P28068) (complex)”, the increase of tryptophan fluorescence on mixing in experiment [2] lay in the range of 10 to 12%.
